# Experimental data published in patent publication US20260217697A1, “COMPOUNDS COMPRISING HETEROARYL RINGS AND COMPOSITIONS AND METHODS THEREOF” (lonGen Therapeutics Co., Ltd., priority 2022, published 2026).
# Molecular target: T1, hTRPV3 (Homo sapiens, UniProt Q8NET8)
# T1 construct: The commercially available plasmid with the full-length cDNA of hTRPV3 (791 aa) (NM_001258205.2); host or cells: HEK293T
# T1 sequence (Q8NET8 1-791 isoform Q8NET8-2): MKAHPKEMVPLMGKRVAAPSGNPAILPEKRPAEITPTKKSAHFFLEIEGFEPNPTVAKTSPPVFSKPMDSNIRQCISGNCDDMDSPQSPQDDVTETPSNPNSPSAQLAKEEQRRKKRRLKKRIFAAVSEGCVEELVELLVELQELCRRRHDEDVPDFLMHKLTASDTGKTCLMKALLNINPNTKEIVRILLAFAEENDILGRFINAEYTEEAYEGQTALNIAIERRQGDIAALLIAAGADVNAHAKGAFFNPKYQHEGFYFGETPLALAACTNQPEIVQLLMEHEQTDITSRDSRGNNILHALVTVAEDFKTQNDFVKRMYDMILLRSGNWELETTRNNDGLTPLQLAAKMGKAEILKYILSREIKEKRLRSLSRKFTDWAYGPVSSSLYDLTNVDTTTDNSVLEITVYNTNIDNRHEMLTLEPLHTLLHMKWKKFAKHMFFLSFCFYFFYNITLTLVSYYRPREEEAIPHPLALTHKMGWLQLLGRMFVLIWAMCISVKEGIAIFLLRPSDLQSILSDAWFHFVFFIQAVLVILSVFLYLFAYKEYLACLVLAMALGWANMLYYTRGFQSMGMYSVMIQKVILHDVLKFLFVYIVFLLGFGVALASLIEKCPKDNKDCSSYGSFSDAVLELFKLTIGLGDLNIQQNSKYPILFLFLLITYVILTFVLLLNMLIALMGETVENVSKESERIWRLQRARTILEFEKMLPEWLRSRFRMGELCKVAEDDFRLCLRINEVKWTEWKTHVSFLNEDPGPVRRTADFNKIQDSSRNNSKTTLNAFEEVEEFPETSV
# Assay: Whole-cell patch-clamp recording of hTRPV3 current in transfected HEK293T cells (2-APB induced)
# Assay type: cell-based
# Conditions: current induced by 300 μM 2-APB, compounds tested up to 10 μM, room temperature
# Protocol: Various technologies can be utilized to assess TRPV3 activation in accordance with the present disclosure. For example, in some embodiments, compounds are assessed in in vitro patch clamp experiments. Certain useful procedures are described herein as examples.
# In some embodiments, whole-cell patch-clamp recordings were used to detect the current through hTRPV3 channels in the HEK293T cell line transfected with hTRPV3 cDNA and evaluate the exact blocking effect of compounds on hTRPV3. In some embodiments, a perfusion system was adopted to control the extracellular solution, including the addition of the agonist and different antagonists.
# HEK293T cells were cultured in a Dulbecco's modified Eagle's medium containing 10% fetal bovine serum (Thermo Scientific) and 1% penicillin/streptomycin (Thermo Scientific) at 37° C. with 5% CO2. The commercially available plasmid with the full-length cDNA of hTRPV3 (791 aa) (NM_001258205.2) was purchased from OriGene Technologies. The transfection of hTRPV3 plasmids was conducted using Lipofectamine™ 3000 following the manufacturer's instructions (Invitrogen).
# Whole-cell patch-clamp experiments were performed 18 h post-transfection, using a MultiClamp 700B amplifier driven by pClamp 11 software (Molecular Devices). In order to achieve good single-cell physical separation, HEK293T cells with hTRPV3 expression were digested and then re-plated at low density on glass coverslips. Electrodes were pulled from borosilicate glass with a P-97 micropipette puller (Sutter Instruments) and those with resistances of 3-5 MΩ are used for experiments. In some embodiments, an Ag—AgCl wire was used as a reference electrode and signals are filtered using a 2.9 kHz low-pass Bessel filter. Membrane potential was held at 0 mV. For recording of agonist-induced activation and inhibition by different test compounds, currents were elicited by a protocol consisting of a 400-ms step to +80 mV, followed by a 400-ms step to −80 mV at 2-s intervals. both pipette and bath solutions contained 130 mM NaCl, 0.3 mM EDTA, and 3 mM HEPES (buffered to pH 7.4 with NaOH). All recordings were made at room temperature.
# All patch-clamp recordings were analyzed using the Clampfit software and GraphPad Prism 6.0 software. Specifically, data are analyzed by calculating the degree of current amplitude after the test compound addition compared with the unblocked agonist-induced current amplitude. The resulting blocking percentage at each concentration was used to make a concentration-response analysis and fitted to the Hill equation: blocking percentage=minimum blocking percentage+ (maximum blocking percentage-minimum blocking percentage)/(1+10^(Hill slope* […])). The minimum blocking percentage is 0% and maximum blocking percentage is 100%, while the Hill slope and the IC50 were determined as the curve fitting routine. Compounds of interest were tested against hTRPV3 at concentrations up to 10 μM, and certain data was used to estimate IC50 as described herein.
row,IC50 [nM],Compound
1,100 to 1000,"COc1ncnc(OC)c1C(=O)Nc1nc2c(s1)C1(CCCCCC1)Oc1cc(C(F)(F)F)ccc1-2 [compound 26, 4,6-dimethoxy-N-(7-(trifluoromethyl)spiro[chromeno[4,3-d]thiazole-4,1′-cycloheptan]-2-yl)pyrimidine-5-carboxamide]"
2,< 100,"COc1ncnc(OC)c1C(=O)Nc1nc2c(s1)C1(CCN(C(=O)OC(C)(C)C)CC1)Oc1cc(C(F)(F)F)ccc1-2 [compound 27, tert-butyl 2-(4,6-dimethoxypyrimidine-5-carboxamido)-7-(trifluoromethyl)spiro[chromeno[4,3-d]thiazole-4,4′-piperidine]-1′-carboxylate]"
3,100 to 1000,"C=CCCC1Oc2cc(C(F)(F)F)ccc2-c2nc(NC(=O)c3c(OC)ncnc3OC)sc21 (stereo not drawn) [compound 28, N-(4-(but-3-en-1-yl)-7-(trifluoromethyl)-4H-chromeno[4,3-d]thiazol-2-yl)-4,6-dimethoxypyrimidine-5-carboxamide]"
4,100 to 1000,"COc1ncnc(OC)c1C(=O)Nc1nc2c(s1)C(CCc1ccccc1)Oc1cc(C(F)(F)F)ccc1-2 (stereo not drawn) [compound 29, 4,6-dimethoxy-N-(4-phenethyl-7-(trifluoromethyl)-4H-chromeno[4,3-d]thiazol-2-yl)pyrimidine-5-carboxamide]"
5,100 to 1000,"COc1ncnc(OC)c1C(=O)Nc1nc2c(s1)C1(CCC(OCc3ccccc3)CC1)Oc1cc(C(F)(F)F)ccc1-2 (stereo not drawn) [compound 30, N-(4′-(benzyloxy)-7-(trifluoromethyl)spiro[chromeno[4,3-d]thiazole-4,1′-cyclohexan]-2-yl)-4,6-dimethoxypyrimidine-5-carboxamide]"
6,100 to 1000,"CCC1CCC2(CC1)Oc1cc(C(F)(F)F)ccc1-c1nc(NC(=O)c3c(OC)ncnc3OC)sc12 (stereo not drawn) [compound 31, N-(4′-ethyl-7-(trifluoromethyl)spiro[chromeno[4,3-d]thiazole-4,1′-cyclohexan]-2-yl)-4,6-dimethoxypyrimidine-5-carboxamide]"
7,< 100,"CCOC(=O)C1CCC2(CC1)Oc1cc(C(F)(F)F)ccc1-c1nc(NC(=O)c3c(OC)ncnc3OC)sc12 (stereo not drawn) [compound 32, ethyl 2-(4,6-dimethoxypyrimidine-5-carboxamido)-7-(trifluoromethyl)spiro[chromeno[4,3-d]thiazole-4,1′-cyclohexane]-4′-carboxylate]"
8,100 to 1000,"COc1ncnc(OC)c1C(=O)Nc1nc2c(s1)C1(CCC(C)CC1)Oc1cc(C(F)(F)F)ccc1-2 (stereo not drawn) [compound 33, 4,6-dimethoxy-N-(4′-methyl-7-(trifluoromethyl)spiro[chromeno[4,3-d]thiazole-4,1′-cyclohexan]-2-yl)pyrimidine-5-carboxamide]"
9,100 to 1000,"COc1ncnc(OC)c1C(=O)Nc1nc2c(s1)C1(CCC(C)(C)CC1)Oc1cc(C(F)(F)F)ccc1-2 [compound 34, N-(4′,4′-dimethyl-7-(trifluoromethyl)spiro[chromeno[4,3-d]thiazole-4,1′-cyclohexan]-2-yl)-4,6-dimethoxypyrimidine-5-carboxamide]"
10,100 to 1000,"COc1ncnc(OC)c1C(=O)Nc1nc2c(s1)C1(CCCC(C)(C)C1)Oc1cc(C(F)(F)F)ccc1-2 (stereo not drawn) [compound 35, N-(3′,3′-dimethyl-7-(trifluoromethyl)spiro[chromeno[4,3-d]thiazole-4,1′-cyclohexan]-2-yl)-4,6-dimethoxypyrimidine-5-carboxamide]"
11,100 to 1000,"COc1ncnc(OC)c1C(=O)Nc1nc2c(s1)C1(CCC(c3ccc(C)cc3)CC1)Oc1cc(C(F)(F)F)ccc1-2 (stereo not drawn) [compound 36, 4,6-dimethoxy-N-(4′-(p-tolyl)-7-(trifluoromethyl)spiro[chromeno[4,3-d]thiazole-4,1′-cyclohexan]-2-yl)pyrimidine-5-carboxamide]"
12,100 to 1000,"COc1ncnc(OC)c1C(=O)Nc1nc2c(s1)C1(CC(C)CC(C)C1)Oc1cc(C(F)(F)F)ccc1-2 (stereo not drawn) [compound 37, N-(3′,5′-dimethyl-7-(trifluoromethyl)spiro[chromeno[4,3-d]thiazole-4,1′-cyclohexan]-2-yl)-4,6-dimethoxypyrimidine-5-carboxamide]"
13,100 to 1000,"CCC1CCCC2(C1)Oc1cc(C(F)(F)F)ccc1-c1nc(NC(=O)c3c(OC)ncnc3OC)sc12 (stereo not drawn) [compound 38, N-(3′-ethyl-7-(trifluoromethyl)spiro[chromeno[4,3-d]thiazole-4,1′-cyclohexan]-2-yl)-4,6-dimethoxypyrimidine-5-carboxamide]"
14,100 to 1000,"COc1ncnc(OC)c1C(=O)Nc1nc2c(s1)C1(CCCC(NC(=O)OCc3ccccc3)C1)Oc1cc(C(F)(F)F)ccc1-2 (stereo not drawn) [compound 39, benzyl(2-(4,6-dimethoxypyrimidine-5-carboxamido)-7-(trifluoromethyl)spiro[chromeno[4,3-d]thiazole-4,1′-cyclohexan]-3′-yl)carbamate]"
15,100 to 1000,"COc1ncnc(OC)c1C(=O)Nc1nc2c(s1)C1(CCC(F)(F)CC1)Oc1cc(C(F)(F)F)ccc1-2 [compound 40, N-(4′,4′-difluoro-7-(trifluoromethyl)spiro[chromeno[4,3-d]thiazole-4,1′-cyclohexan]-2-yl)-4,6-dimethoxypyrimidine-5-carboxamide]"
16,100 to 1000,"CCCCCCC1(C)Oc2cc(C(F)(F)F)ccc2-c2nc(NC(=O)c3c(OC)ncnc3OC)sc21 (stereo not drawn) [compound 41, N-(4-hexyl-4-methyl-7-(trifluoromethyl)-4H-chromeno[4,3-d]thiazol-2-yl)-4,6-dimethoxypyrimidine-5-carboxamide]"
17,100 to 1000,"COc1ncnc(OC)c1C(=O)Nc1nc2c(s1)C(C)(CCc1ccccc1)Oc1cc(C(F)(F)F)ccc1-2 (stereo not drawn) [compound 42, 4,6-dimethoxy-N-(4-methyl-4-phenethyl-7-(trifluoromethyl)-4H-chromeno[4,3-d]thiazol-2-yl)pyrimidine-5-carboxamide]"
18,100 to 1000,"C=CCCOc1ncnc(OC)c1C(=O)Nc1nc2c(s1)C1(CCCCC1)Oc1cc(C(F)(F)F)ccc1-2 [compound 43, 4-(but-3-en-1-yloxy)-6-methoxy-N-(7-(trifluoromethyl)spiro[chromeno[4,3-d]thiazole-4,1′-cyclohexan]-2-yl)pyrimidine-5-carboxamide]"
19,< 100,"C=CCCC1(C)Oc2cc(C(F)(F)F)ccc2-c2nc(NC(=O)c3c(OC)ncnc3OC)sc21 (stereo not drawn) [compound 44, N-(4-(but-3-en-1-yl)-4-methyl-7-(trifluoromethyl)-4H-chromeno[4,3-d]thiazol-2-yl)-4,6-dimethoxypyrimidine-5-carboxamide]"
20,≥ 10000,"COc1ncnc(OC)c1C(=O)Nc1nc2c(s1)C1(CCNCC1)Oc1cc(C(F)(F)F)ccc1-2 [compound 45, 4,6-dimethoxy-N-(7-(trifluoromethyl)spiro[chromeno[4,3-d]thiazole-4,4′-piperidin]-2-yl)pyrimidine-5-carboxamide]"

row,Compound,IC50 [nM]
1,"COc1ncnc(OC)c1C(=O)Nc1nc2c(s1)C1(CCN(C)CC1)Oc1cc(C(F)(F)F)ccc1-2 [compound 46, 4,6-dimethoxy-N-(1′-methyl-7-(trifluoromethyl)spiro[chromeno[4,3-d]thiazole-4,4′-piperidin]-2-yl)pyrimidine-5-carboxamide]",1000 to 10000
